# Measured values taken from patent publication US6057371A, “Sigma receptor ligands and the use thereof” (Virginia Commonwealth University, priority 1992, dated 2000).
# Structures can show the parent of a compound that is named as a salt.
# Tested on: sigma receptor
# Experiment: Sigma receptor binding, [^3 H]DTG, brain membranes (both sigma-1 and sigma-2 sites)
# Parameters: species or system guinea pig
# Settings: Example 6
# Experimental: Sigma receptor binding assays using guinea pig brain membrane homogenates and the radioligand [^3 H]DTG were conducted as described by Weber et al.. […] Briefly, frozen whole guinea-pig brains (Biotrol, Indianapolis, Ind.) were homogenized in 10 volumes (w/v) of ice-cold 320 mM sucrose using a Brinkman polytron. The homogenate was centrifuged at 1,000× g for 20 minutes at 4° C. The supernatant was centrifuged at 20,000× g for 20 minutes at 4° C. The resulting pellet was resuspended in 10 initial volumes of 50 mM Tris/HCl buffer at pH 7.4 and centrifuged at 20,000× g for 20 minutes at 4° C. The resulting pellet was resuspended in 5 initial volumes ice-cold 50 mM Tris/Hcl […], and the final volume was adjusted to yield a protein concentration of 3 mg/ml. Aliquots of 20-ml were stored at -70° C. until used, with no detectable loss of binding.
# The protein concentration in the 1-ml final incubation volume was 800 ug/ml, corresponding to 32 mg of brain tissue (original wet weight) and to a tissue concentration within the linear range for specific binding. […] Incubations were terminated after 90 minutes at room temperature by addition of 4 ml of ice-cold 50 mM Tris/HCl (pH 7.4) and rapid filtration of the membrane suspension through Whatman GF/B glass-fiber filters under vacuum, using a 48-well cell harvester (Brandel). The filters were washed 2 times with 4 ml of 50 mM Tris/HCl (pH 7.4). Each filter was suspended in 10 ml Cytoscint (ICI), and radioactivity was measured by liquid scintillation spectrometry at a counting efficiency of approximately 50%. IC50 values were determined by non-linear regression analyis.
# (§1) Further sigma receptor binding assays against [^3 H]DTG and 5HT-1A binding assays were conducted according to the procedure outlined in the previous examples.
# Radioligand Binding. […] Briefly, membranes (P2 microsomal fraction) were diluted 1:3 with 50 mM Tris HCl (pH 7.4) and 0.4 mL was combined with 50 μL [^3 H]DTG (1-2 nM final concentration) and 50 μL of competing drug or buffer. After 90 min at room temperature, incubation was terminated by rapid filtration under vacuum through Whatman GF/B glass fiber filters using a Brandel 48-well cell harvester. Filters were washed three times with 5 mL of cold Tris HCl buffer and each filter was suspended in 5 mL of Cytoscint (ICN Biomedical). Radioactivity was measured by liquid scintillation spectrometry at a counting efficiency of 50%.
row,SMILES,"change in sigma affinity, words"
1,c1ccc(CCCCCNCC2CCCCC2)cc1 [Compound 93],binds with twice the affinity

# Same assay, conditions: Table 6; [^3 H]DTG
row,SMILES,IC50
1,c1ccc(CCCCCNCC2CCCCC2)cc1 [Compound 93],1.4 nM
2,c1ccc(CCCCNCCCCc2ccccc2)cc1 [Compound 73],6.98 nM
3,"CCC(Cc1ccccc1)NCCCCc1ccccc1 (centres unmarked) [Compound 101, N-(4-phenylbutyl)-1-phenyl-2-butylamine]",15.7 nM
4,"CN(C)CCCCCc1ccccc1 [Compound 125, N,N-Dimethyl-5-phenylpentylamine]",38.8 nM
5,"c1ccc(CCCCCN2CCCCC2)cc1 [Compound 124, N-(5-phenylpentyl)piperidine]",2.05 nM
6,c1ccc(CCCCNCCCc2ccccc2)cc1 [Compound 72],7.23 nM
7,COc1ccc(OC)c(CC(C)NCCCCc2ccccc2)c1 (centres unmarked) [Compound 65],72.9 nM
8,"c1ccc(CCCNCCCC2CCCCC2)cc1 [Compound 92, N-(3-Cyclohexylpropyl)-3-phenylpropylamine Hydrochloride]",2.99 nM
9,C[C@@H](Cc1ccccc1)N(C)CCCCCc1ccccc1 [Compound 69],2.25 nM
10,CC(C)CCN(C)[C@@H](C)Cc1ccccc1 [Compound 115],3.04 nM
11,O=C1c2ccccc2C(=O)N1CCCCCN1CCN(c2ccccc2)CC1 [Compound 98],6.18 nM
12,OC1(Cc2ccccc2)CCN(CCCCCc2ccccc2)CC1 [Compound 118],2.14 nM
13,COc1cc(CC(C)NCCCCc2ccccc2)c(OC)cc1Br (centres unmarked) [Compound 66],45.1 nM
14,CC(Cc1ccc(OCc2ccccc2)cc1)NCCCc1ccccc1 (centres unmarked) [Compound 85],28.1 nM
15,CCCc1ccc(CC(C)NCCCc2ccccc2)cc1 (centres unmarked) [Compound 84],6.43 nM
16,C[C@@H](Cc1ccccc1)N(C)CCCc1ccc2ccccc2c1 [Compound 68],3.25 nM
17,"CN(CCCCCc1ccccc1)Cc1ccccc1 [Compound 137, N-Benzyl-N-methyl-5-phenylpentylamine]",1.11 nM
18,c1ccc(CCCNC2CCCc3ccccc3C2)cc1 (centres unmarked) [Compound 67],59.6 nM
19,c1ccc(CCCCCCNCCCc2ccccc2)cc1 [Compound 110],3.62 nM
20,Clc1ccc(N2CCN(CCCc3ccccc3)CC2)cc1 [Compound 78],3.01 nM

# Same assay, conditions: running text, Examples 5 and 6; read-out: sigma receptor Ki
row,SMILES,Ki
1,c1ccc(CCCCCNCC2CCCCC2)cc1 [Compound 93],0.0012 µM
2,"CN(C)CCCCCc1ccccc1 [Compound 125, N,N-Dimethyl-5-phenylpentylamine]",0.035 µM
3,"c1ccc(CCCNCCCC2CCCCC2)cc1 [Compound 92, N-(3-Cyclohexylpropyl)-3-phenylpropylamine Hydrochloride]",0.0024 µM

# Molecular target: T1, sigma-1 binding site (Cavia porcellus, UniProt Q60492)
# T1 construct: Guinea pig whole membrane preparations (P2 microsomal fraction); from tissue; host or cells: guinea pig membranes (P2 microsomal fraction), as described by Weber et al; brain inferred from the sister test b489
# T1 sequence (Q60492 whole entry): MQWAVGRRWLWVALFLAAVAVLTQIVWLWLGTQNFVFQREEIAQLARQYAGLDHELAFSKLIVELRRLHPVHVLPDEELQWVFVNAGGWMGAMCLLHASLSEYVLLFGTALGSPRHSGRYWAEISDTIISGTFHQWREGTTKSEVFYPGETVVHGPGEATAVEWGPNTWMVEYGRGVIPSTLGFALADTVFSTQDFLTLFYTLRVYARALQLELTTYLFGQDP
# Experiment: biochemical
# Parameters: species or system guinea pig
# Settings: Example 8
# Experimental: [^3 H]DTG was purchased from DuPont/NEN.
# The radioactivity on the filters was determined by scintillation spectrometry at an efficiency of about 50% using Cytoscint (ICN) scintillation fluid.
row,SMILES,sigma-2/sigma-1 selectivity
1,"CN(C)CCCCCc1ccccc1 [Compound 125, N,N-Dimethyl-5-phenylpentylamine]",96
2,"c1ccc(CCCCCN2CCCCC2)cc1 [Compound 124, N-(5-phenylpentyl)piperidine]",100

# Same assay, conditions: Table 10; read-out: SIGMA-1 KI vs. 3H-PENTAZOCINE MEAN
row,SMILES,Ki
1,"CCC(Cc1ccccc1)NCCCCc1ccccc1 (centres unmarked) [Compound 101, N-(4-phenylbutyl)-1-phenyl-2-butylamine]",0.0027 µM
2,"CN(C)CCCCCc1ccccc1 [Compound 125, N,N-Dimethyl-5-phenylpentylamine]",0.0104 µM
3,"c1ccc(CCCCCN2CCCCC2)cc1 [Compound 124, N-(5-phenylpentyl)piperidine]",0.00048 µM

# Same assay, conditions: Table 10; sigma-1/sigma-2
row,SMILES,S1/S2 Ratio
1,"CCC(Cc1ccccc1)NCCCCc1ccccc1 (centres unmarked) [Compound 101, N-(4-phenylbutyl)-1-phenyl-2-butylamine]",0.026
2,"CN(C)CCCCCc1ccccc1 [Compound 125, N,N-Dimethyl-5-phenylpentylamine]",0.011
3,"c1ccc(CCCCCN2CCCCC2)cc1 [Compound 124, N-(5-phenylpentyl)piperidine]",0.010

# Same assay, conditions: less than about 0.1; see Table 10
row,SMILES,IC50 ratio of sigma-1/sigma-2 (sigma-1 selective compounds)
1,"CCC(Cc1ccccc1)NCCCCc1ccccc1 (centres unmarked) [Compound 101, N-(4-phenylbutyl)-1-phenyl-2-butylamine]",less than 0.1
2,"CN(C)CCCCCc1ccccc1 [Compound 125, N,N-Dimethyl-5-phenylpentylamine]",less than 0.1
3,"c1ccc(CCCCCN2CCCCC2)cc1 [Compound 124, N-(5-phenylpentyl)piperidine]",less than 0.1

# Molecular target: T2, sigma-2 binding site (Cavia porcellus, UniProt H0V073)
# T2 construct: Guinea pig whole membrane preparations (P2 microsomal fraction); from tissue; host or cells: guinea pig membranes (P2 microsomal fraction), as described by Weber et al; brain inferred from the sister test b489
# T2 sequence (H0V073 1-176): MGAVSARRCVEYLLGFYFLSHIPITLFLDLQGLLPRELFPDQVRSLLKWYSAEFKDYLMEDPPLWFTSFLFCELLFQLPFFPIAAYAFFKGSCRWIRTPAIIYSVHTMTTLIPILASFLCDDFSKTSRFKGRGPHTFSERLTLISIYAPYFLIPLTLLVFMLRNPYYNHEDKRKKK
# Experiment: biochemical
# Parameters: species or system guinea pig
# Settings: Table 10; read-out: SIGMA-2 KI vs. 3H-DTG + PENTAZOCINE MEAN
# Experimental: For the standard equilibrium assay, the mixtures were incubated for 30 min. at room temperature, then filtered and the radioactivity determined as described above.
row,SMILES,Ki
1,"CCC(Cc1ccccc1)NCCCCc1ccccc1 (centres unmarked) [Compound 101, N-(4-phenylbutyl)-1-phenyl-2-butylamine]",0.104 µM
2,"CN(C)CCCCCc1ccccc1 [Compound 125, N,N-Dimethyl-5-phenylpentylamine]",0.965 µM
3,"c1ccc(CCCCCN2CCCCC2)cc1 [Compound 124, N-(5-phenylpentyl)piperidine]",0.0499 µM
4,"CN(CCCCCc1ccccc1)Cc1ccccc1 [Compound 137, N-Benzyl-N-methyl-5-phenylpentylamine]",0.0125 µM

# Same assay, conditions: Table 18; read-out: IC50 (nM) at sigma-2
row,SMILES,IC50
1,"CN(CCCCCc1ccccc1)Cc1ccccc1 [Compound 137, N-Benzyl-N-methyl-5-phenylpentylamine]",12 nM

# Molecular target: T3, 5-HT1A receptor (Rattus norvegicus, UniProt P19327)
# T3 sequence (P19327 1-422): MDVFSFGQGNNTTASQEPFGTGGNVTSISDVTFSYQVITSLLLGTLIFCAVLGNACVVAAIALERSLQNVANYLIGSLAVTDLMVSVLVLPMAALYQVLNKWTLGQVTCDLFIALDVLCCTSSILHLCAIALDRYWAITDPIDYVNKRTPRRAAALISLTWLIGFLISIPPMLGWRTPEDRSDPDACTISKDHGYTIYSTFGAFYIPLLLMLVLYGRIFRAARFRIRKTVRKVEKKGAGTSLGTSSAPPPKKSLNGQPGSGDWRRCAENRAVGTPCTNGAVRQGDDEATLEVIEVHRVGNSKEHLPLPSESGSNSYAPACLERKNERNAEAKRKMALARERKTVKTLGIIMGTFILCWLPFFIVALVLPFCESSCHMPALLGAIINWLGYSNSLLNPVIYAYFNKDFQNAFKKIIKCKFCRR
# Experiment: biochemical
# Type: binding
# Parameters: 47: 529-540 (1986); from tissue; host or cells: brain tissue, inferred from the cited method (rat frontal cortex)
# Settings: Table 6; read-out: 5HT-1A (nM) MEAN
# Experimental: as §1
row,SMILES,IC50
1,c1ccc(CCCCCNCC2CCCCC2)cc1 [Compound 93],597 nM
2,c1ccc(CCCCNCCCCc2ccccc2)cc1 [Compound 73],55.7 nM
3,c1ccc(CCCCNCCCc2ccccc2)cc1 [Compound 72],11.3 nM
4,COc1ccc(OC)c(CC(C)NCCCCc2ccccc2)c1 (centres unmarked) [Compound 65],182 nM
5,"c1ccc(CCCNCCCC2CCCCC2)cc1 [Compound 92, N-(3-Cyclohexylpropyl)-3-phenylpropylamine Hydrochloride]",26.3 nM
6,C[C@@H](Cc1ccccc1)N(C)CCCCCc1ccccc1 [Compound 69],891 nM
7,CC(C)CCN(C)[C@@H](C)Cc1ccccc1 [Compound 115],20000 nM
8,O=C1c2ccccc2C(=O)N1CCCCCN1CCN(c2ccccc2)CC1 [Compound 98],2.23 nM
9,OC1(Cc2ccccc2)CCN(CCCCCc2ccccc2)CC1 [Compound 118],1970 nM
10,COc1cc(CC(C)NCCCCc2ccccc2)c(OC)cc1Br (centres unmarked) [Compound 66],272 nM
11,CC(Cc1ccc(OCc2ccccc2)cc1)NCCCc1ccccc1 (centres unmarked) [Compound 85],1150 nM
12,CCCc1ccc(CC(C)NCCCc2ccccc2)cc1 (centres unmarked) [Compound 84],168 nM
13,C[C@@H](Cc1ccccc1)N(C)CCCc1ccc2ccccc2c1 [Compound 68],1320 nM
14,c1ccc(CCCNC2CCCc3ccccc3C2)cc1 (centres unmarked) [Compound 67],19.3 nM
15,c1ccc(CCCCCCNCCCc2ccccc2)cc1 [Compound 110],117 nM
16,Clc1ccc(N2CCN(CCCc3ccccc3)CC2)cc1 [Compound 78],98.4 nM
